From patent publication US11976054B2, “Amide derivative and preparation method therefore and use thereof in medicine” (Chengdu Baiyu Pharmaceutical Co., Ltd., priority 2019, dated 2024)

Tests used:
[1] = tested on: Human monocyte cell line THP-1; test: Detection of THP-1 cell pyroptosis (Caspase-Glo 1 Inflammasome Assay); format: cell-based; details: 20 nM PMA 48 h, 1 μg/mL LPS, compound 3 h
Method: Human monocyte cell line THP-1 (ATCC® TB-202TM) was cultured in RPMI-1640 culture medium containing […], 1 mM pyruvic acid, 0.05 mM β-mercaptoethanol and 10% double antibody under the culture conditions of 37° C. and […].
Cell counting was performed, THP-1 cells were seeded into a 96-well plate at 50000 per well, and 20 nM PMA was added for inducing at 37° C./5% CO2 for 48 h. The culture medium was then discarded, and 100 μL of serum-free RPMI-1640 medium containing 1 μg/mL LPS was added. 5 μL of compound or solvent control was added and 3-fold diluted in gradient from a maximum concentration of 10 μM, and 10 gradient concentrations were set. The mixtures were incubated at 37° C./5% CO2 for 3 h. After the incubation, the mixtures were centrifuged at 300 g for 5 min, and the culture medium was discarded. Pyroptosis assay was performed according to specific steps described in instructions of Caspase-Glo® 1 Inflammasome Assay kit. IC50 was calculated using GraphPad Prism7.0 software.

[2] = Pharmacokinetic analysis of compounds in rats; format: in vivo, SD rats; details: SD rats; for AUC / Cl / Vss / t1/2 / Cmax: plasma; for F %: po 10 mg/kg vs iv 1 mg/kg
Method: Healthy adult SD rats weighing 180-220 g were fasted (free access to water) overnight and divided into tail vein administration group and intragastric administration group. The tail vein administration group was subjected to blood collection of 0.1 mL from orbital venous plexus before the administration and 5 min, 15 min, 0.5 h, 1 h, 2 h, 4 h, 8 h, 12 h and 24 h after the administration, and plasma was separated out by centrifugation at 4° C. for 5 min and stored at −20° C. for test. The intragastric administration group was subjected to blood collection of 0.1 mL from orbital venous plexus before the administration and 5 min, 15 min, 0.5 h, 1 h, 2 h, 4 h, 8 h, 12 h and 24 h after the administration, and the subsequent treatment procedures were the same as those of the tail vein injection group. The concentration of parent drug in the plasma was determined by LC-MS/MS.

[3] = Homo sapiens, THP-1, THP-1 pyroptosis

With `C[C@@H](c1ccc2c(c1NC(=O)NS(=N)(=O)c1cc(C(C)(C)O)co1)CC2)C1CC1` (mixture of isomers) [Compound 38-1, RS- and SS-N-((3-((R)-1-cyclopropylethyl)bicyclo[4.2.0]octa-1(6),2,4-trien-2-yl)carbamoyl)-4-(2-hydroxypropan-2-yl)furan-2-sulfonimidamide] the IC50 ([1]; THP-1 pyroptosis) was at most 100 nM, the “AUC” value ([2]; iv (tail vein), 1 mg/kg) was 2112 ng·h/mL and the “Cl” value ([2]; iv (tail vein), 1 mg/kg) was 8.2 mL/min/kg. The “Vss” value ([2]; iv (tail vein), 1 mg/kg) was 0.679 L/kg, the “t1/2” value ([2]; iv (tail vein), 1 mg/kg) was 2.2 h and the F % [2] was 184%. For the same compound, the “AUC” value ([2]; po (intragastric), 10 mg/kg) was 38823 ng·h/mL, the “Cmax” value ([2]; po (intragastric), 10 mg/kg) was 13267 ng/mL and the “t1/2” value ([2]; po (intragastric), 10 mg/kg) was 3.1 h.

With `C[C@@H](c1ccc2c(c1NC(=O)NS(=N)(=O)c1cc(C(C)(C)O)co1)CCC2)C1CC1` (mixture of isomers) [Compound 6-2, (RS, RC)- and (SS, RC)-N-((5-(-1-cyclopropylethyl)-2,3-dihydro-1H-inden-4-yl)carbamoyl)-4-(2-hydroxypropan-2-yl)furan-2-sulfonimidamide] the IC50 ([1]; THP-1 pyroptosis) was 100 to 500 nM, the “AUC” value ([2]; iv (tail vein), 1 mg/kg) was 1657 ng·h/mL and the “Cl” value ([2]; iv (tail vein), 1 mg/kg) was 10.2 mL/min/kg. The “Vss” value ([2]; iv (tail vein), 1 mg/kg) was 0.781 L/kg, the “t1/2” value ([2]; iv (tail vein), 1 mg/kg) was 1.5 h and the F % [2] was 65.9%. The “AUC” value ([2]; po (intragastric), 10 mg/kg) was 10920 ng·h/mL, the “Cmax” value ([2]; po (intragastric), 10 mg/kg) was 4073 ng/mL and the “t1/2” value ([2]; po (intragastric), 10 mg/kg) was 2.8 h.

In the case of `CC(c1ccc2c(c1NC(=O)NS(=N)(=O)c1cc(C(C)(C)O)co1)CCC2)C1CC1` (racemic) [Compound 8-2, (RS, SC)- and (SS, SC)-N-((5-(1-cyclopropylethyl)-2,3-dihydro-1H-inden-4-yl)carbamoyl)-4-(2-hydroxypropan-2-yl)furan-2-sulfonimidamide], the IC50 ([1]; THP-1 pyroptosis) is reported as 500 to 1000 nM, the “AUC” value ([2]; iv (tail vein), 1 mg/kg) is reported as 2170 ng·h/mL and the “Cl” value ([2]; iv (tail vein), 1 mg/kg) is reported as 7.8 mL/min/kg. The “Vss” value ([2]; iv (tail vein), 1 mg/kg) was 0.656 L/kg, the “t1/2” value ([2]; iv (tail vein), 1 mg/kg) was 2.0 h and the F % [2] was 66.7%. The “AUC” value ([2]; po (intragastric), 10 mg/kg) was 14484 ng·h/mL, the “Cmax” value ([2]; po (intragastric), 10 mg/kg) was 6190 ng/mL and the “t1/2” value ([2]; po (intragastric), 10 mg/kg) was 3.4 h.

With `C[C@@H](c1ccc2c(c1NC(=O)NS(=O)(=O)c1sc(C(C)(C)O)cc1C#N)CCC2)C1CC1` [Compound 62, (R)-3-cyano-N-((5-(1-cyclopropylethyl)-2,3-dihydro-1H-inden-4-yl)carbamoyl)-5-(2-hydroxypropan-2-yl)thiophene-2-sulfonamide] the IC50 [1, 3] was at most 100 nM.

For `C[C@H](c1ccc2c(c1NC(=O)NS(=O)(=O)c1sc(C(C)(C)O)cc1C#N)CCC2)C1CC1` [Compound 63, (S)-3-cyano-N-((5-(1-cyclopropylethyl)-2,3-dihydro-1H-inden-4-yl)carbamoyl)-5-(2-hydroxypropan-2-yl)thiophene-2-sulfonamide], the IC50 [1, 3] was 100 to 500 nM.

Compound `C[C@@H](c1ccc2c(c1NC(=O)NS(=O)(=O)c1sc(C(C)(C)O)cc1F)CCC2)C1CC1` [Compound 64, (R)-N-((5-(1-cyclopropylethyl)-2,3-dihydro-1H-inden-4-yl)carbamoyl)-3-fluoro-5-(2-hydroxypropan-2-yl)thiophene-2-sulfonamide] has an IC50 [1, 3] of 100 to 500 nM.

Compound `C[C@H](c1ccc2c(c1NC(=O)NS(=N)(=O)c1ccc(C3(O)COC3)s1)CCC2)C1CC1` (stereo partly drawn) [Compound 65C, N-((5-((S)-1-cyclopropylethyl)-2,3-dihydro-1H-inden-4-yl)carbamoyl)-5-(3-hydroxyoxetan-3-yl)thiophene-2-sulfonimidamide] has an IC50 [1, 3] of 100 to 500 nM.

With `C[C@@H](c1ccc2c(c1NC(=O)NS(=O)(=O)c1ccc(C3(O)CCOCC3)s1)CCC2)C1CC1` [Compound 68] the IC50 [1, 3] was 100 to 500 nM.

Work on `CC(C)c1cccc([C@@H](C)C2CC2)c1NC(=O)NS(=O)(=O)c1cc(C(C)(C)O)co1` [Compound 71, (S)-N-((2-(1-cyclopropylethyl)-6-isopropylphenyl)carbamoyl)-4-(2-hydroxypropan-2-yl)furan-2-sulfonamide] yielded an IC50 [1, 3] of 100 to 500 nM.

With `CC(C)c1cccc([C@H](C)C2CC2)c1NC(=O)NS(=O)(=O)c1cc(C(C)(C)O)co1` [Compound 72] the IC50 [1, 3] was 100 to 500 nM.

`C[C@@H](c1ccc2c(c1NC(=O)NS(=O)(=O)c1cc(C(C)(C)O)co1)CCC2)C1CCC1` [Compound 79, (R)-N-((5-(1-cyclobutylethyl)-2,3-dihydro-1H-inden-4-yl)carbamoyl)-4-(2-hydroxypropan-2-yl)furan-2-sulfonamide] showed an IC50 [1, 3] of 100 to 500 nM.

Compound `C[C@H](c1ccc2c(c1NC(=O)NS(=O)(=O)c1cc(C(C)(C)O)co1)CCC2)C1CCC1` [Compound 81, (S)-N-((5-(1-cyclobutylethyl)-2,3-dihydro-1H-inden-4-yl)carbamoyl)-4-(2-hydroxypropan-2-yl)furan-2-sulfonamide] has an IC50 [1, 3] of 1000 to 5000 nM.

Work on `CC(C)(O)c1csc(S(=N)(=O)NC(=O)Nc2c(CC3CCC3)ccc3c2CCC3)c1` (centres unmarked) [Compound 83A, N-((5-(cyclobutylmethyl)-2,3-dihydro-1H-inden-4-yl)carbamoyl)-4-(2-hydroxypropan-2-yl)thiophene-2-sulfonimidamide] yielded an IC50 [1, 3] of at most 100 nM.

`CC(C)(O)c1coc(S(=O)(=O)NC(=O)Nc2c(C(C3CC3)C3CC3)ccc3c2CCC3)c1` [Compound 86, N-((5-(dicyclopropylmethyl)-2,3-dihydro-1H-inden-4-yl)carbamoyl)-4-(2-hydroxypropan-2-yl)furan-2-sulfonamide] showed an IC50 [1, 3] of 500 to 1000 nM.

`C[C@H](c1ccc2c(c1NC(=O)NS(=O)(=O)c1cnc(C(C)(C)O)s1)CCC2)C1CC1` [Compound 88, (S)-N-((5-(1-cyclopropylethyl)-2,3-dihydro-1H-inden-4-yl)carbamoyl)-2-(2-hydroxypropan-2-yl)thiazole-5-sulfonamide] showed an IC50 [1, 3] of 100 to 500 nM.

Compound `Cc1cc2c(c(NC(=O)NS(=O)(=O)c3cc(C(C)(C)O)co3)c1[C@H](C)C1CC1)CCC2` [Compound 90, (R)-N-((5-(1-cyclopropylethyl)-6-methyl-2,3-dihydro-1H-inden-4-yl)carbamoyl)-4-(2-hydroxypropan-2-yl)furan-2-sulfonamide] has an IC50 [1, 3] of 100 to 500 nM.

For `Cc1ccc(S(=N)(=O)NC(=O)Nc2c(C(C)C)cccc2C(C)C)cc1` (centres unmarked) [Compound 92-1, RS- and SS-N-((2,6-diisopropylphenyl)carbamoyl)-4-methylbenzenesulfonimidamide, reference compound], the IC50 ([1]; THP-1 pyroptosis) was over 10000 nM.

Work on `Cc1ccc(S(=N)(=O)NC(=O)Nc2c(C(C)C)cccc2C(C)C)cc1` (centres unmarked) [Compound 92-2, RS- and SS-N-((2,6-diisopropylphenyl)carbamoyl)-4-methylbenzenesulfonimidamide, reference compound] yielded an IC50 ([1]; THP-1 pyroptosis) of over 10000 nM.

With “(RS, RC)- and (SS, RC)-N-((5-(1-cyclopropylethyl)-2,3-dihydro-1H-inden-4-yl-7-d)carbamoyl)-4-(2-hydroxypropan-2-yl)furan-2-sulfonimidamide [Compound 31-1]” the IC50 ([1]; THP-1 pyroptosis) was 100 to 500 nM.

Compound “(RS, SC)- and (SS, SC)-N-((5-(1-cyclobutylethyl)-2,3-dihydro-1H-inden-4-yl)carbamoyl)-4-(2-hydroxypropan-2-yl)furan-2-sulfonimidamide [Compound 82-2]” has an IC50 ([1]; THP-1 pyroptosis) of 1000 to 5000 nM.

“(RS, SC)- and (SS, SC)-N-((5-(1-cyclopropylethyl)-2,3-dihydro-1H-inden-4-yl)carbamoyl)-4-(2-hydroxypropan-2-yl-1,1,1,3,3,3-d6)furan-2-sulfonimidamide [Compound 49-1]” showed an IC50 ([1]; THP-1 pyroptosis) of 100 to 500 nM.

Work on “RS- and SS-N-((5-(cyclobutylmethyl)-2,3-dihydro-1H-inden-4-yl)carbamoyl)-4-(2-hydroxypropan-2-yl-1,1,1,3,3,3-d6)furan-2-sulfonimidamide [Compound 50-1]” yielded an IC50 ([1]; THP-1 pyroptosis) of 500 to 1000 nM.

“RS- and SS-N-((5-(cyclobutylmethyl)-2,3-dihydro-1H-inden-4-yl-7-d)carbamoyl)-4-(2-hydroxypropan-2-yl)furan-2-sulfonimidamide [Compound 39-2]” showed an IC50 ([1]; THP-1 pyroptosis) of 1000 to 5000 nM.
